The text below walks through data of patent US4647586A, “Pharmaceutical oil-in-water type micro-emulsion” (priority 1984, dated 1987).

Data set [1] concerns synthesis of prostaglandin. The conditions noted are these: E. L. Tolman, American Cyanamid Company's report; cited from earlier work.
The conditions of data set [2]: rat, in vivo.
Experimental: (a) Experimental animals: Wistar-strain male rats (body weight 60-220 g), 6 per group.
The rats were periodically killed, and the major organs were extracted. The concentration of the drug in the tissues were measured by the conventional HPLC method.
Data set [3] relates to brewer's yeast-induced fever. Nature of the data set: Effects on body temperature in pyretic rats (antipyretic activity). The class given is in vivo, SD-strain male rats. The following applies: iv, 17 hours after yeast; against vehicle control; read-out: ED50 (dose reducing body temperature by at least 1.5° C. in 50% of the rats). How it is done:
(a) Experimental animals SD-strain male rats (120-185 g).
(§1) (b) Test drugs: The same as in A-1 [Test 2].
Male Sprague-Dawley rats, weighing 120-185 g, were injected subcutaneously in the nape of the neck with 2 ml of a 20% suspension of dried brewers yeast in physiological saline. Drugs and vehicles were administered intravenously 17 hours after treatment of yeast suspension. Rectal temperature was recorded with a thermistor type thermometer (Natsume Seisakusho, BMA-77 Type) just prior to drug administration and at 1/2, 1, 2 and 4 hours after drug administration.

Data set [4] relates to Carrageenin-induced paw edema. Nature of the data set: Carrageenin-induced paw edema in rats [Test 2]. In kind it is in vivo, SD-strain male rats. How it is done: (a) Experimental animals: SD-strain male rats (120-180 g).
A micro-emulsion containing ethyl 4-biphenylylacetate prepared as in Examples 11, 12, 13 and 14 given hereinafter was administered at a dose of 5 ml per kg of the animals. Venolipid® (Morishita Pharmaceutical Co., Ltd.) was used as a vehicle control. As control drugs, a solution or suspension of ethyl 4-biphenylylacetate in physiological saline containing 0.5% Cremophor EL® (Sigma Chemical Company, a solubilizing agent), 0.2% of polyethylene glycol 400 and 10% of dimethyl sulfoxide, a physiological saline solution of sodium 4-biphenylylacetate and a physiological saline solution of Aspirin DL-lysine [Venopirin®, Green Cross Co.] were used. As the vehicle control of the control drugs, the above solvents were used.
A 1% carrageenin solution in physiological saline was injected subcutaneously in an amount of 0.05 ml into the planter surface of the left hind paw of each rat via a 25 gauge needle fitted to a 0.25 ml syringe. One hour after carrageenin injection, the rats were randomized on the basis of the edema volume, and intravenous administration of the drugs and vehicles followed immediately. The volume of the left hind paw was measured by a plethysmometer (Ugo Basile) prior to the injection of the carrageenin solution and at 2, 3, 4, 5 and 6 hours after the carrageenin injection. As the volume of edema, an increase in the paw volume was taken.
The inhibition percents were calculated in accordance with the same calculation formula as in Test 1.
(In general: In the carrageenan paw model, swelling and tenderness develop within hours.)

The test system of data set [5] is Adjuvant-induced polyarthritis. Nature of the data set: Adjuvant-induced polyarthritis in rats, adjuvant-injected paw [Test 2]. In kind it is in vivo, SD-strain female rats. The procedure:
(a) Experimental animals: SD-strain famale rats 140-180g).
as §1
Rats were anesthetized with ether inhalation, and 0.6 mg of Mycobacterium butyricum suspended in 0.1 ml of white paraffin oil was immediately injected intradermally into the planter surface of the left hind paw of each rat via a 27 gauge needle fitted to a 0.5 ml syringe (day 0). On the 14th day after the adjuvant injection, arthritis-established rats selected by development of secondary lesions were used. Volumes of both hind paws in arthritis-established rats were measured by a plethysmometer (UGO BASILE), and the rats were randomized on the basis of the edema volume in the adjuvant-injected paw. Once daily, beginning on the 14th day up to the 18th day, drugs and vehicles were administered intravenously. Measurements of both paw volumes were performed every day from the 15th day up to the 18th day, and on the 21st day and the 24th day. The inhibition percent were calculated in accordance with the calculation formula as in [Test 1] of A-1.

The conditions of data set [6]: in vivo, po; cited from earlier work.

As for `O=C(O)Cc1ccc(-c2ccccc2)cc1` [4-biphenylylacetic acid, 4-Biphenylylacetic acid], in data set [1], the “IC50, inhibition of synthesis of prostaglandin” value was 0.68 ng/mL.

As to `CCOC(=O)Cc1ccc(-c2ccccc2)cc1` [Ethyl 4-biphenylylacetate], the “Transferability to the tissues” value in data set [2] is given as “showed the same transferability to the tissues”. Also, in data set [3], the ED50 (in general, the dose at which the effect has come halfway, by size or by number of responders) was determined as 3.1 mg/kg. Further, the “Inhibition (%)” value stood at 14.0% in data set [4] (1.25 mg/kg i.v. as 4-biphenylylacetic acid, 2 h after carrageenin); 17.5% in data set [4] (1.25 mg/kg i.v. as 4-biphenylylacetic acid, 3 h after carrageenin); 9.6% in data set [4] (1.25 mg/kg i.v. as 4-biphenylylacetic acid, 4 h after carrageenin); 9.8% in data set [4] (1.25 mg/kg i.v. as 4-biphenylylacetic acid, 5 h after carrageenin); 6.4% in data set [4] (1.25 mg/kg i.v. as 4-biphenylylacetic acid, 6 h after carrageenin); 19.3% in data set [4] (2.5 mg/kg i.v. as 4-biphenylylacetic acid, 2 h after carrageenin). For the same molecule, the “Inhibition (%)” value in data set [4] (2.5 mg/kg i.v. as 4-biphenylylacetic acid, 3 h after carrageenin) was determined as 26.3%; in data set [4] (2.5 mg/kg i.v. as 4-biphenylylacetic acid, 4 h after carrageenin), 17.3%; in data set [4] (2.5 mg/kg i.v. as 4-biphenylylacetic acid, 5 h after carrageenin), 17.6%; in data set [4] (2.5 mg/kg i.v. as 4-biphenylylacetic acid, 6 h after carrageenin), 12.8%; in data set [4] (5.0 mg/kg i.v. as 4-biphenylylacetic acid, 2 h after carrageenin), 17.5%; in data set [4] (5.0 mg/kg i.v. as 4-biphenylylacetic acid, 3 h after carrageenin), 28.1%. Also, the “Inhibition (%)” value in data set [4] (5.0 mg/kg i.v. as 4-biphenylylacetic acid, 4 h after carrageenin) is on record as 23.1%; in data set [4] (5.0 mg/kg i.v. as 4-biphenylylacetic acid, 5 h after carrageenin), 23.5%; in data set [4] (5.0 mg/kg i.v. as 4-biphenylylacetic acid, 6 h after carrageenin), 19.1%; in data set [4] (10.0 mg/kg i.v. as 4-biphenylylacetic acid, 2 h after carrageenin), 22.8%; in data set [4] (10.0 mg/kg i.v. as 4-biphenylylacetic acid, 3 h after carrageenin), 22.8%; in data set [4] (10.0 mg/kg i.v. as 4-biphenylylacetic acid, 4 h after carrageenin) it was 26.9%. In addition, the “Inhibition (%)” value was 25.5% in data set [4] (10.0 mg/kg i.v. as 4-biphenylylacetic acid, 5 h after carrageenin); 27.7% in data set [4] (10.0 mg/kg i.v. as 4-biphenylylacetic acid, 6 h after carrageenin); -8.0% in data set [5] (1.25 mg/kg/day i.v. as 4-biphenylylacetic acid, day 15); -5.1% in data set [5] (1.25 mg/kg/day i.v. as 4-biphenylylacetic acid, day 16); -3.3% in data set [5] (1.25 mg/kg/day i.v. as 4-biphenylylacetic acid, day 17); -4.6% in data set [5] (1.25 mg/kg/day i.v. as 4-biphenylylacetic acid, day 18). Besides, the “Inhibition (%)” value in data set [5] (1.25 mg/kg/day i.v. as 4-biphenylylacetic acid, day 21) is given as -19.2%; in data set [5] (1.25 mg/kg/day i.v. as 4-biphenylylacetic acid, day 24), -23.2%; in data set [5] (2.5 mg/kg/day i.v. as 4-biphenylylacetic acid, day 15) it was -3.7%; in data set [5] (2.5 mg/kg/day i.v. as 4-biphenylylacetic acid, day 16), 0%; in data set [5] (2.5 mg/kg/day i.v. as 4-biphenylylacetic acid, day 17) it was 6.7%; in data set [5] (2.5 mg/kg/day i.v. as 4-biphenylylacetic acid, day 18), 5.8%. Besides, the “Inhibition (%)” value in data set [5] (2.5 mg/kg/day i.v. as 4-biphenylylacetic acid, day 21) was -6.5%; in data set [5] (2.5 mg/kg/day i.v. as 4-biphenylylacetic acid, day 24), -17.5%; in data set [5] (5.0 mg/kg/day i.v. as 4-biphenylylacetic acid, day 15), 5.6%; in data set [5] (5.0 mg/kg/day i.v. as 4-biphenylylacetic acid, day 16), 7.2%; in data set [5] (5.0 mg/kg/day i.v. as 4-biphenylylacetic acid, day 17), 15.5%; in data set [5] (5.0 mg/kg/day i.v. as 4-biphenylylacetic acid, day 18) it was 15.0%. Moreover, the “Inhibition (%)” value in data set [5] (5.0 mg/kg/day i.v. as 4-biphenylylacetic acid, day 21) was 8.9%; in data set [5] (5.0 mg/kg/day i.v. as 4-biphenylylacetic acid, day 24), 1.3%; in data set [5] (10.0 mg/kg/day i.v. as 4-biphenylylacetic acid, day 15) it was 2.8%; in data set [5] (10.0 mg/kg/day i.v. as 4-biphenylylacetic acid, day 16) it was 10.7%; in data set [5] (10.0 mg/kg/day i.v. as 4-biphenylylacetic acid, day 17), 15.2%; in data set [5] (10.0 mg/kg/day i.v. as 4-biphenylylacetic acid, day 18) it was 15.6%. In addition, the “Inhibition (%)” value in data set [5] (10.0 mg/kg/day i.v. as 4-biphenylylacetic acid, day 21) is reported as 3.0%; in data set [5] (10.0 mg/kg/day i.v. as 4-biphenylylacetic acid, day 24), -9.8%. Besides, the ED30 in data set [4] (Rattus norvegicus, iv, read-out: ED30 (dose required to cause a 30% inhibition of edema volume)) turned out to be 15.8 mg/kg. Further, in data set [5] (Rattus norvegicus, iv, read-out: ED20 (dose required to cause a 20% inhibition of adjuvant-injected paw volume)), the ED20 worked out at 14.5 mg/kg.

As for `O=C(O)CCC(=O)c1ccc(-c2ccccc2)cc1` [Fenbufen, 4-(4-biphenyl)-4-oxobutyric acid], in data set [6], the “Side effects on the digestive organs” value is on record as “considerably reduced as compared with conventional non-steroidal anti-inflammatory agents”.
